According to patent US20240092790A1, “DIHYDROFUROPYRIDINE DERIVATIVES AS RHO- KINASE INHIBITORS” (CHIESI FARMACEUTICI S.P.A., priority 2020, published 2024):
pKi: −log10 of the molar value.

What was measured:
Type in all cases: biochemical
ROCK2 = ROCK2 (Homo sapiens, UniProt O75116); experiment: In vitro inhibitory activity assay ROCK2 (ADP-Glo); conditions: ATP 200 μM, Cheng-Prusoff; read-out: ROCK2 (Ki, range of activity)
Description: (§1) In Vitro Inhibitory Activity Assay Description ROCK1 and ROCK2
(§2) The effectiveness of compounds of the present invention to inhibit Rho kinase activity can be determined in a 10 μl assay containing 40 mM Tris pH7.5, 20 mM MgCl2 0.1 mg/mL BSA, 50 μM DTT and 2.5 μM peptide substrate (Myelin Basic Protein) using an ADP-Glo kit (Promega). Compounds were dissolved in DMSO such that the final concentration of DMSO was 1% in the assay. All reactions/incubations are performed at 25° C. Compound (2 ul) and either Rho kinase 1 or 2 (4 μl) were mixed and incubated for 30 mins. Reactions were initiated by addition of ATP (4 μl) such that the final concentration of ATP in the assay was 200 μM. After a 1 hour incubation 10 μl of ADP-Glo Reagent was added and after a further 1 hour incubation 20 ul of Kinase Detection Buffer was added and the mixture incubated for a further 45 minutes. The luminescent signal was measured on a luminometer. […] Compounds were tested in dose-response format and the inhibition of kinase activity was calculated at each concentration of compound. To determine the IC50 (concentration of compound required to inhibit 50% of the enzyme activity) data were fit to a plot of % inhibition vs Log 10 compound concentration using a sigmoidal fit with a variable slope and fixing the maximum to 100% and the minimum to 0%. To determine the Ki values the Cheng-Prusoff equation was utilized (Ki=IC50/(1+[S]/Km).

PKA = PKA (Homo sapiens, UniProt P17612); experiment: In vitro inhibitory activity assay for PKA (ADP-Glo), reported as selectivity ratio vs ROCK2; conditions: Ki value for PKA divided by Ki value of ROCK2
Description: In Vitro Inhibitory Activity Assay Description for PKA
The effectiveness of compounds of the present invention to inhibit PKA activity can be determined in a 10 μl assay containing 40 mM Tris pH7.5, 20 mM MgCl2 0.1 mg/ml BSA, 50 μM DTT and 260 μM peptide substrate (kemptide) using an ADP-Glo kit (Promega). Compounds were dissolved in DMSO such that the final concentration of DMSO was 1% in the assay. All reactions/incubations are performed at 25° C. Compound and PKA enzyme (6 μl) were mixed and incubated for 30 mins. Reactions were initiated by addition of ATP (4 μl) such that the final concentration of ATP in the assay was 10 μM. After a 30 minute incubation 10p of ADP-Glo Reagent was added and after a further 1 hour incubation 20 μl of Kinase Detection Buffer was added and the mixture incubated for a further 45 minutes. The luminescent signal was measured on a luminometer. […] Compounds were tested in dose-response format and the inhibition of kinase activity was calculated at each concentration of compound. To determine the IC50 (concentration of compound required to inhibit 50% of the enzyme activity) data were fit to a plot of % inhibition vs Log10 compound concentration using a sigmoidal fit with a variable slope and fixing the maximum to 100% and the minimum to 0%. To determine the Ki values the Cheng-Prusoff equation was utilized (Ki=IC50/(1+[S]/Km).
In vitro inhibitory activities for PKA were reported as selectivity ratio vs. ROCK-2.

ROCK1 = ROCK1 (Homo sapiens, UniProt Q13464); experiment: In vitro inhibitory activity assay ROCK1 (ADP-Glo); conditions: ATP 200 μM, Cheng-Prusoff; read-out: ROCK 1 (Ki, range of activity)
Sequence of ROCK1 (Q13464 whole entry): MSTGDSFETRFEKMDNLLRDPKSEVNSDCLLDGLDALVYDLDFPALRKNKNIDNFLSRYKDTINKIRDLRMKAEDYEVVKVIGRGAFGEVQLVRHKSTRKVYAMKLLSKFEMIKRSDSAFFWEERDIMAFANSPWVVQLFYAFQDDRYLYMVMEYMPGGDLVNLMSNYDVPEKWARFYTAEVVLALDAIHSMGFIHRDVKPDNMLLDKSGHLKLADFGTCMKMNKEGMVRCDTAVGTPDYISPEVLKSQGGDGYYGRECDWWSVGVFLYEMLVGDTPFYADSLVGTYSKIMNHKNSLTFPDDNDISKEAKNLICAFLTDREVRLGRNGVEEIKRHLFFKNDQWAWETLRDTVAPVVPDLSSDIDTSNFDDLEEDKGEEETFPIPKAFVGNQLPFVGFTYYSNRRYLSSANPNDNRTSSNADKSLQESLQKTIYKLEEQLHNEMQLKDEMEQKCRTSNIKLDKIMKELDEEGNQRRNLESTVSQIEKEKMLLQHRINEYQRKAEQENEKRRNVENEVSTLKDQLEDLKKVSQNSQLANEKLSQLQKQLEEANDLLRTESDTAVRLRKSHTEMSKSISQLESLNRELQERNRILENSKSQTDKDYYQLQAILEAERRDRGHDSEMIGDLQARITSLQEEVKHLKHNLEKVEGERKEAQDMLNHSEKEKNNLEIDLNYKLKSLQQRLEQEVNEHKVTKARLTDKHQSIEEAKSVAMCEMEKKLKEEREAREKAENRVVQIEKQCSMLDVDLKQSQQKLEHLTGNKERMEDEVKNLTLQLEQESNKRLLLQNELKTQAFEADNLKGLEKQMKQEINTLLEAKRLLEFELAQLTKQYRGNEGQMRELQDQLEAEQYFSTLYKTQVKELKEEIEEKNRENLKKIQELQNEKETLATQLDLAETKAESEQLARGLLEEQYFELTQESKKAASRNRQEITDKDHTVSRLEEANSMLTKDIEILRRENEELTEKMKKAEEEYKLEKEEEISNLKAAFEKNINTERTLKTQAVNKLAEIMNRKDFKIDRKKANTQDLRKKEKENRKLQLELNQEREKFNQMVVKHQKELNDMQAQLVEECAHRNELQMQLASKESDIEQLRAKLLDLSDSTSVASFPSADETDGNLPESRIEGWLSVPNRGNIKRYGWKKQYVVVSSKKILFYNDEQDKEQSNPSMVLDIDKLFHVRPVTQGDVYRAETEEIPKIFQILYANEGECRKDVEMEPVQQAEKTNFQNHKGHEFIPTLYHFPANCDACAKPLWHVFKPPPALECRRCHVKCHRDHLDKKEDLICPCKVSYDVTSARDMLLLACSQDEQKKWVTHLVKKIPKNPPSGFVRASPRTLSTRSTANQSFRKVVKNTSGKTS
Description: as §1, §2

Sequence of ROCK2 (O75116 whole entry): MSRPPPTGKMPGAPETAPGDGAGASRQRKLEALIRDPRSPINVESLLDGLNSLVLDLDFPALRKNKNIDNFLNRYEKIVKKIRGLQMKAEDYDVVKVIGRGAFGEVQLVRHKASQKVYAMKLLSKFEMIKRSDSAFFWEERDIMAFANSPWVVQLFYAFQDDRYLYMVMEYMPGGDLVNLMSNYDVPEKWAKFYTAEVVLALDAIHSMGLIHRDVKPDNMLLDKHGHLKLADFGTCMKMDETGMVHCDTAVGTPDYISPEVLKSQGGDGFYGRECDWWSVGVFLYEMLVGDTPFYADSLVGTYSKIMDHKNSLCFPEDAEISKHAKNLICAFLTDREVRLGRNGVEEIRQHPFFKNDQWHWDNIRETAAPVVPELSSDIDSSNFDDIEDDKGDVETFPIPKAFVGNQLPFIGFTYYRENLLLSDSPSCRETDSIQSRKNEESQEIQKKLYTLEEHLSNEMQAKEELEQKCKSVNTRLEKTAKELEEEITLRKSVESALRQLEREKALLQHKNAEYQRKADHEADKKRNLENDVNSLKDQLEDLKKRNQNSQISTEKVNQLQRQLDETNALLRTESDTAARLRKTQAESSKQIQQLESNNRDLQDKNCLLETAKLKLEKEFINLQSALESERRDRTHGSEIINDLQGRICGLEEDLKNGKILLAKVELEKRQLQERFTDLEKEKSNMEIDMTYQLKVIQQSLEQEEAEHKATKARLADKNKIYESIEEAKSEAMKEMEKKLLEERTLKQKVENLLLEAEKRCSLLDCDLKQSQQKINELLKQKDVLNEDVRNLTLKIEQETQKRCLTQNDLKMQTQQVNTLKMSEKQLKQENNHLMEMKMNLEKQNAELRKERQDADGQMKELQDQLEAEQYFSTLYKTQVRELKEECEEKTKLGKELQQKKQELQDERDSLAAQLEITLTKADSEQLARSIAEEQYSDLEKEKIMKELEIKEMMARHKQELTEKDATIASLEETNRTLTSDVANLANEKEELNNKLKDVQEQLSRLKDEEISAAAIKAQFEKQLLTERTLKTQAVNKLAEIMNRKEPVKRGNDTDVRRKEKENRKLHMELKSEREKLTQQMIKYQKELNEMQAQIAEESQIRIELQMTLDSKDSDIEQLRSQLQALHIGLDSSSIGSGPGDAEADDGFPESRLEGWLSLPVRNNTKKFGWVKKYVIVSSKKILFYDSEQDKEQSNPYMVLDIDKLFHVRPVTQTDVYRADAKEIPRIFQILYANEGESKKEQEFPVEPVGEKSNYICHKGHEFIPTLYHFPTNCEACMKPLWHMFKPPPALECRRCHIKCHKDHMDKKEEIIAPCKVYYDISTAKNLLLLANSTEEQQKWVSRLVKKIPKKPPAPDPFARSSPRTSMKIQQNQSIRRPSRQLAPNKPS

Row | SMILES | pKi (ROCK2) | Ratio (PKA/ROCK2) (PKA) | pKi (ROCK1)
1 | COCCCNC(=O)c1cccc(CNc2ncc(-c3ccnc(N)n3)c3c2CCO3)c1F [Example 55, 3-(((7-(2-Aminopyrimidin-4-yl)-2,3-dihydrofuro[3,2-c]pyridin-4-yl)amino)methyl)-2-fluoro-N-(3-methoxypropyl)benzamide] | ≥ 8.52 | *** (ratio≥10) | 7.52 to 8.52
2 | Nc1nccc(-c2cnc(NCc3cccc(C(=O)N[C@H]4[C@@H]5COC[C@@H]54)c3)c3c2OCC3)n1 [Example 23, 3-(((7-(2-Aminopyrimidin-4-yl)-2,3-dihydrofuro[3,2-c]pyridin-4-yl)amino)methyl)-N-((1R,5S,6r)-3-oxabicyclo[3.1.0]hexan-6-yl)benzamide] | ≥ 8.52 | *** (ratio≥10) | ≥ 8.52
3 | CNC(=O)c1cccc(CNc2ncc(-c3ccnc(N)n3)c3c2CCO3)c1 [Example 21, 3-(((7-(2-Aminopyrimidin-4-yl)-2,3-dihydrofuro[3,2-c]pyridin-4-yl)amino)methyl)-N-methylbenzamide] | ≥ 8.52 | *** (ratio≥10) | 7.52 to 8.52
4 | Nc1nccc(-c2cnc(NCc3cccc(C(=O)NC4CCOCC4)c3F)c3c2OCC3)n1 [Example 56, 3-(((7-(2-Aminopyrimidin-4-yl)-2,3-dihydrofuro[3,2-c]pyridin-4-yl)amino)methyl)-2-fluoro-N-(tetrahydro-2H-pyran-4-yl)benzamide] | 7.52 to 8.52 | *** (ratio≥10) | 7.52 to 8.52
5 | COCC1(CNC(=O)c2cccc(CNc3ncc(-c4ccnc(N)n4)c4c3CCO4)c2)CC1 [Example 28, 3-(((7-(2-Aminopyrimidin-4-yl)-2,3-dihydrofuro[3,2-c]pyridin-4-yl)amino)methyl)-N-((1-(methoxymethyl)cyclopropyl)methyl)benzamide] | ≥ 8.52 | *** (ratio≥10) | 7.52 to 8.52
6 | Nc1nccc(-c2cnc(NCc3cccc(C(=O)NC[C@@H]4CCCO4)c3)c3c2OCC3)n1 [Example 43, (S)-3-(((7-(2-Aminopyrimidin-4-yl)-2,3-dihydrofuro[3,2-c]pyridin-4-yl)amino)methyl)-N-((tetrahydrofuran-2-yl)methyl)benzamide] | ≥ 8.52 | *** (ratio≥10) | ≥ 8.52
7 | COCCNC(=O)c1cccc(CNc2ncc(-c3ccnc(N)n3)c3c2CCO3)c1 [Example 9, 3-(((7-(2-Aminopyrimidin-4-yl)-2,3-dihydrofuro[3,2-c]pyridin-4-yl)amino)methyl)-N-(2-methoxyethyl)benzamide] | ≥ 8.52 | *** (ratio≥10) | ≥ 8.52
8 | CO[C@H]1C[C@H](CNC(=O)c2cccc(CNc3ncc(-c4ccnc(N)n4)c4c3CCO4)c2)C1 [Example 39, 3-(((7-(2-Aminopyrimidin-4-yl)-2,3-dihydrofuro[3,2-c]pyridin-4-yl)amino)methyl)-N-(((1R,3R)-3-methoxycyclobutyl)methyl)benzamide] | ≥ 8.52 | *** (ratio≥10) | ≥ 8.52
9 | CC(F)(F)CNC(=O)c1cccc(CNc2ncc(-c3ccnc(N)n3)c3c2CCO3)c1 [Example 44, 3-(((7-(2-Aminopyrimidin-4-yl)-2,3-dihydrofuro[3,2-c]pyridin-4-yl)amino)methyl)-N-(2,2-difluoropropyl)benzamide] | ≥ 8.52 | *** (ratio≥10) | ≥ 8.52
10 | CN1CCOC(CNC(=O)c2cccc(CNc3ncc(-c4ccnc(N)n4)c4c3CCO4)c2)C1 (single isomer, unassigned) [Example 34, 3-(((7-(2-Aminopyrimidin-4-yl)-2,3-dihydrofuro[3,2-c]pyridin-4-yl)amino)methyl)-N-((4-methylmorpholin-2-yl)methyl)benzamide] | ≥ 8.52 | *** (ratio≥10) | ≥ 8.52
